Holding throughout (type): cell-based
The test system of one assay is Ovcar3 (Muc16+) cells. The assay can be described thus: In vitro cytotoxicity assay, Ovcar3 cells (CCK8 viability). As to conditions: naked payload, 3 days; for Ovcar3 % kill: % kill reported for the highest dose; for IC50: CCK8. How it is done: (§1) In this Example, the ability of various antibody-drug conjugates and naked payloads to kill antigen-expressing tumor cells in vitro was assessed.
(§2) Ovcar3 (Muc16+) cells were seeded in 96 well plates at 3000 cells per well in complete growth media and grown overnight. For cell viability curves, serially diluted conjugates or naked payloads were added to the cells at final concentrations ranging from 100 nM to 5 pM and incubated for 3 days. To measure viability, cells were incubated with CCK8 (Dojindo) for the final 2 hours and the absorbance at 450 nm (OD450) was determined on a Victor (Perkin Elmer). Background OD450 levels determined from digitonin (40 nM) treated cells were subtracted from all wells and viability is expressed as a percentage of the untreated controls. IC50 values were determined from a four-parameter logistic equation over a 10-point response curve (GraphPad Prism). […] All curves and IC50 values are corrected for payload equivalents. The plot of % Cell Viability vs. Log 10 [M]
(§3) All IC50s are expressed in nM concentration and % kill is reported for the highest dose. All curves and IC50 values are corrected for payload equivalents. The plot of % Cell Viability vs. Log 10 [M]

The test system of another assay is SKBR3 (Her2+) cells. The assay can be described thus: In vitro cytotoxicity assay, SKBR3 cells (CCK8 viability). As to conditions: naked payload, SKBr-3 cells, 3 days; for SKBr-3 % kill: % kill reported for the highest dose; for IC50: CCK8. How it is done:
as §1
as §2, with “SKBR3 (Her2+)” for “Ovcar3 (Muc16+)”, “8000” for “3000”
as §3

A further assay deals with C4-2 (STEAP2+) cells. In words: In vitro cytotoxicity assay, C4-2 cells (CellTiter-Glo viability). To be noted: naked payload, 5 days; for C4-2 % kill: % kill reported for the highest dose; for IC50: CellTiter-Glo. The protocol: as §1
C4-2 (STEAP2+) cells were seeded in 96 well plates at 4000 cells per well in complete growth media and grown overnight. For cell viability curves, serially diluted conjugates or naked payloads were added to the cells at final concentrations ranging from 100 nM to 5 pM and incubated for 5 days. To measure viability, cells were incubated with CellTiter-Glo reagents for 5 minutes and luminescence was determined on a Victor plate reader (PerkinElmer). IC50 values were determined from a four-parameter logistic equation over a 10-point response curve (GraphPad Prism).
as §3
For orientation: ATP-based viability assays read luminescence as a measure of living cells.

The term IC50 denotes the concentration that inhibits the measured activity by half. A lower IC50 goes with inhibition by little substance.

`COc1cc2cc(c1Cl)N(C)C(=O)CC(OC(=O)Nc1ccc(N)cc1)C1(C)OC1C(C)C1CC(O)(NC(=O)O1)C(OC)C=CC=C(C)C2` (centres unmarked) [Compound 8, Maytan-3-O-carbamoyl-N-(4-aminobenzene)]: in the assay with Ovcar3 (Muc16+) cells, the Ovcar3 % kill result is “** (** indicates % kill greater than, or equal to, 85 and less than 90)”; the IC50 fell in the range of 1 to 10 nM. Further, in the assay on SKBR3 (Her2+) cells, the SKBr-3 % kill result was “**** (**** indicates % kill greater than, or equal to, 95 and less than 99)”; the IC50 was in the range of 1 to 10 nM. Besides, in the assay on C4-2 (STEAP2+) cells, the C4-2 % kill entry was “**** (**** indicates % kill greater than, or equal to, 95 and less than 99)”; the IC50 is at least 10 nM.
As to `COc1cc2cc(c1Cl)N(C)C(=O)CC(OC(=O)Nc1ccc(N)cc1Cl)C1(C)OC1C(C)C1CC(O)(NC(=O)O1)C(OC)C=CC=C(C)C2` (centres unmarked) [Compound 17, Maytan-3-O-carbamoyl-N-(2-chloro-4-amino)benzene], in the assay on Ovcar3 (Muc16+) cells, the Ovcar3 % kill result is “*** (*** indicates % kill greater than, or equal to, 90 and less than 95)”; the IC50 lay in the range of 0.001 to 0.01 nM. Besides, in the assay with SKBR3 (Her2+) cells, the SKBr-3 % kill entry was “***** (***** indicates % kill greater than, or equal to, 99)” and the 50% inhibitory concentration (IC50) lay within 0.01 to 0.1 nM. In the assay on C4-2 (STEAP2+) cells, the C4-2 % kill result is “**** (**** indicates % kill greater than, or equal to, 95 and less than 99)”; the IC50 fell in the range of 0.1 to 1 nM.
Take `COc1cc2cc(c1Cl)N(C)C(=O)CC(OC(=O)Nc1ccc(N)c(Cl)c1)C1(C)OC1C(C)C1CC(O)(NC(=O)O1)C(OC)C=CC=C(C)C2` (centres unmarked) [Compound 30a, Maytan-3-O-carbamoyl-N-(3-chloro-4-amino)benzene]: in the assay with Ovcar3 (Muc16+) cells, the Ovcar3 % kill result was “*** (*** indicates % kill greater than, or equal to, 90 and less than 95)”; the IC50 was in the range of 0.1 to 1 nM. Besides, in the assay on SKBR3 (Her2+) cells, the SKBr-3 % kill entry is “**** (**** indicates % kill greater than, or equal to, 95 and less than 99)”; the IC50 lay in the range of 0.1 to 1 nM. For the same compound, in the assay with C4-2 (STEAP2+) cells, the C4-2 % kill result was “***** (***** indicates % kill greater than, or equal to, 99)” and the IC50 lay within 1 to 10 nM.
Consider `COc1cc2cc(c1Cl)N(C)C(=O)C[C@H](OC(=O)Nc1ccc(N)cc1C)[C@]1(C)O[C@H]1[C@H](C)[C@@H]1C[C@@](O)(NC(=O)O1)[C@H](OC)/C=C/C=C(\C)C2` [Compound 30c, Maytan-3-O-carbamoyl-N-(2-methyl-4-amino)benzene], for which, in the assay with Ovcar3 (Muc16+) cells, the Ovcar3 % kill entry was “** (** indicates % kill greater than, or equal to, 85 and less than 90)”; the IC50 lay within 1 to 10 nM. For the same compound, in the assay with SKBR3 (Her2+) cells, the SKBr-3 % kill entry is “*** (*** indicates % kill greater than, or equal to, 90 and less than 95)”; the IC50 lay in the range of 1 to 10 nM. For the same compound, in the assay with C4-2 (STEAP2+) cells, the C4-2 % kill entry is “** (** indicates % kill greater than, or equal to, 85 and less than 90)”; the IC50 was at least 10 nM.
For `COc1cc(NC(=O)OC2CC(=O)N(C)c3cc(cc(OC)c3Cl)CC(C)=CC=CC(OC)C3(O)CC(OC(=O)N3)C(C)C3OC23C)ccc1N` (centres unmarked) [Compound 30j, Maytan-3-O-carbamoyl-N-(3-methoxy-4-amino)benzene], in the assay on Ovcar3 (Muc16+) cells, the Ovcar3 % kill result was “** (** indicates % kill greater than, or equal to, 85 and less than 90)”; the half-inhibitory concentration (IC50) lay within 1 to 10 nM. Besides, in the assay on SKBR3 (Her2+) cells, the SKBr-3 % kill result was “**** (**** indicates % kill greater than, or equal to, 95 and less than 99)”; the half-inhibitory concentration (IC50) lay in the range of 0.1 to 1 nM. Besides, in the assay with C4-2 (STEAP2+) cells, the C4-2 % kill result is “*** (*** indicates % kill greater than, or equal to, 90 and less than 95)”; the IC50 was at least 10 nM.
As for `COc1cc2cc(c1Cl)N(C)C(=O)CC(OC(=O)Nc1ccc(N)c(C(F)(F)F)c1)C1(C)OC1C(C)C1CC(O)(NC(=O)O1)C(OC)C=CC=C(C)C2` (centres unmarked) [Compound 30l, Maytan-3-O-carbamoyl-N-(3-trifluoromethyl-4-amino)benzene], the Ovcar3 % kill entry in the assay on Ovcar3 (Muc16+) cells is “*** (*** indicates % kill greater than, or equal to, 90 and less than 95)”. Also, the concentration for half-maximal inhibition (IC50) in the assay with Ovcar3 (Muc16+) cells is 0.1 to 1 nM; with SKBR3 (Her2+) cells, 0.1 to 1 nM; in the assay with C4-2 (STEAP2+) cells it was at least 10 nM. Further, the SKBr-3 % kill result in the assay on SKBR3 (Her2+) cells is reported as “***** (***** indicates % kill greater than, or equal to, 99)”.
In the case of `COc1cc2cc(c1Cl)N(C)C(=O)C[C@H](OC(=O)Nc1ccc(N)cc1Br)[C@]1(C)O[C@H]1[C@H](C)[C@@H]1C[C@@](O)(NC(=O)O1)[C@H](OC)/C=C/C=C(\C)C2` [Compound 30m, Maytan-3-O-carbamoyl-N-(2-bromo-4-amino)benzene], in the assay with Ovcar3 (Muc16+) cells, the Ovcar3 % kill result is “** (** indicates % kill greater than, or equal to, 85 and less than 90)”; the half-maximal inhibitory concentration (IC50) was 0.001 to 0.01 nM. Also, in the assay with SKBR3 (Her2+) cells, the SKBr-3 % kill entry was “***** (***** indicates % kill greater than, or equal to, 99)” and the 50% inhibitory concentration (IC50) is 0.01 to 0.1 nM. In addition, in the assay with C4-2 (STEAP2+) cells, the C4-2 % kill result is listed as “***** (***** indicates % kill greater than, or equal to, 99)” and the IC50 fell in the range of 0.01 to 0.1 nM.
In the case of `COc1cc2cc(c1Cl)N(C)C(=O)C[C@H](OC(=O)Nc1cc(N3CCCC3)c(N)cc1C)[C@]1(C)O[C@H]1[C@H](C)[C@@H]1C[C@@](O)(NC(=O)O1)[C@H](OC)/C=C/C=C(\C)C2` [Compound 30q, Maytan-3-O-carbamoyl-N-(4-amino-2-methyl-5-pyrrolidin-1-yl)benzene], in the assay with SKBR3 (Her2+) cells, the SKBr-3 % kill result is “***** (***** indicates % kill greater than, or equal to, 99)” and the IC50 was in the range of 1 to 10 nM. In the assay on C4-2 (STEAP2+) cells, the C4-2 % kill result was “*** (*** indicates % kill greater than, or equal to, 90 and less than 95)”; the IC50 is at least 10 nM.
With “Maytan-3-O-carbamoyl-N-(2-methoxy-4-amino)benzene [Compound 30k]”, in the assay on Ovcar3 (Muc16+) cells, the Ovcar3 % kill result is “*** (*** indicates % kill greater than, or equal to, 90 and less than 95)”. The IC50 with Ovcar3 (Muc16+) cells was 0.1 to 1 nM; in the assay on SKBR3 (Her2+) cells, 1 to 10 nM; in the assay with C4-2 (STEAP2+) cells, at least 10 nM. The SKBr-3 % kill result with SKBR3 (Her2+) cells is “***** (***** indicates % kill greater than, or equal to, 99)”.
Consider “Maytan-3-O-carbamoyl-N-(2-methyl-3-amino)benzene [Compound 30d]”, for which, in the assay with SKBR3 (Her2+) cells, the SKBr-3 % kill result was “**** (**** indicates % kill greater than, or equal to, 95 and less than 99)”; the IC50 lay within 1 to 10 nM. In the assay with C4-2 (STEAP2+) cells, the C4-2 % kill entry is “**** (**** indicates % kill greater than, or equal to, 95 and less than 99)”; the IC50 is 1 to 10 nM.
For “Maytan-3-O-carbamoyl-N-(4-trifluoromethoxy-2-amino)benzene [Compound 30n]”, in the assay on SKBR3 (Her2+) cells, the SKBr-3 % kill entry is given as “***** (***** indicates % kill greater than, or equal to, 99)” and the IC50 lay within 1 to 10 nM. Further, in the assay on C4-2 (STEAP2+) cells, the C4-2 % kill result is reported as “***** (***** indicates % kill greater than, or equal to, 99)” and the IC50 was at least 10 nM.
On to “Maytan-3-O-carbamoyl-N-(6-methyl-3-amino)benzene [Compound 30e]”, for which, in the assay on SKBR3 (Her2+) cells, the SKBr-3 % kill result is “*** (*** indicates % kill greater than, or equal to, 90 and less than 95)”; the IC50 was in the range of 1 to 10 nM. Further, in the assay on C4-2 (STEAP2+) cells, the C4-2 % kill entry is “**** (**** indicates % kill greater than, or equal to, 95 and less than 99)”; the half-maximal inhibitory concentration (IC50) lay in the range of 1 to 10 nM.

Values taken from patent US12691182B2, “Maytansinoid derivatives, conjugates thereof, and methods of use” (priority 2016, dated 2026).
